Experimental data from the supplement of paper PMC8988213.
Structures can show the parent of a compound that is named as a salt.

Legend:
[1] = system: ID188 patient-derived PDAC 2D line (pre-FOLFIRINOX); experiment: normalised area under dose-response curve (viability relative to DMSO, 7 doses up to 10 µM) (fraction (AUC)); higher = less sensitive (more viability retained); settings: 72 h; top dose: 10 µM
How it was run: (§1)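 Patient-derived 2D PDAC cells grown out from organoids were seeded robotically at 1,500–3,000 cells/well in 96-well plates and incubated overnight at 37°C, 5% CO2. SelleckChem library compounds were added at seven concentrations (3-fold dilution series, highest 10 µM) for 72 h. CellTiter-Glo luminescence was read after 10 min. Viability was normalised to the DMSO control, and area under the dose-response curve was derived with the GRmetrics R package.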

[2] = system: ID211 patient-derived PDAC 2D line (post-FOLFIRINOX); experiment: as above; settings: 72 h; top dose: 10 µM
How it was run: as §1

Row | Structure (SMILES) | normalised area under dose-response curve [1] | normalised area under dose-response curve [2]
1 | COc1cc(Br)c(Nc2nc(-c3c(C)nc4ncccn34)cs2)c(Br)c1 [PTC-209 HBr] | 0.836 | 0.819
2 | CCC(C)SSc1ncc[nH]1 (centres undefined) [PX-12] | 0.985 | 0.903
3 | CCOC(=O)c1ccc(N2NC(=O)C(=Cc3ccc([N+](=O)[O-])o3)C2=O)cc1 [PYR-41] | 0.91 | 0.807
4 | CC(=O)O[C@H]1C(=O)[C@@]2(C)[C@H]([C@H](OC(=O)c3ccccc3)[C@]3(O)C[C@H](OC(=O)[C@H](O)[C@@H](NC(=O)c4ccccc4)c4ccccc4)C(C)=C1C3(C)C)[C@]1(OC(C)=O)CO[C@@H]1C[C@@H]2O [Paclitaxel] | 0.432 | 0.444
5 | Cc1[nH]c2ccccc2c1CCNCc1ccc(/C=C/C(=O)NO)cc1 [Panobinostat (LBH589)] | 0.421 | 0.306
6 | CCOc1cc2ncc(C#N)c(Nc3ccc(F)c(Cl)c3)c2cc1NC(=O)/C=C/CN(C)C [Pelitinib (EKB-569)] | 0.846 | 0.631
7 | NS(=O)(=O)OC[C@@H]1C[C@@H](n2ccc3c(N[C@H]4CCc5ccccc54)ncnc32)C[C@@H]1O [Pevonedistat (MLN4924)] | 0.825 | 0.589
8 | CS(=O)(=O)N1CCN(Cc2cc3nc(-c4cccc5[nH]ncc45)nc(N4CCOCC4)c3s2)CC1 [Pictilisib (GDC-0941)] | 0.683 | 0.596
9 | CC(C)N(C[C@H]1O[C@@H](n2cnc3c(N)ncnc32)[C@H](O)[C@@H]1O)[C@H]1C[C@@H](CCc2nc3cc(C(C)(C)C)ccc3[nH]2)C1 [Pinometostat (EPZ5676)] | 0.916 | 0.8
10 | CC(C)(C)c1[nH]cnc1/C=c1\[nH]c(=O)/c(=C/c2ccccc2)[nH]c1=O [Plinabulin (NPI-2358)] | 0.588 | 0.355
11 | C=CC(=O)N1CCC(Oc2cc3c(Nc4ccc(Cl)c(Cl)c4F)ncnc3cc2OC)CC1 [Poziotinib (HM781-36B)] | 0.908 | 0.54
12 | CCCCc1nc2cc(/C=C/C(=O)NO)ccc2n1CCN(CC)CC [Pracinostat (SB939)] | 0.778 | 0.799
13 | CC(C)(C)c1cc(NC(=O)Nc2ccc(-c3cn4c(n3)sc3cc(OCCN5CCOCC5)ccc34)cc2)no1 [Quizartinib (AC220)] | 0.974 | 0.809
14 | Nc1cc(F)ccc1NC(=O)/C=C/c1cnn(C/C=C/c2ccccc2)c1 [RGFP966] | 0.911 | 0.779
15 | Cc1cc2c3c([n+](C)c4ccc(F)cc4c3c1)-c1cc(F)ccc1N2C [RHPS 4 methosulfate] | 0.945 | 0.906
16 | O=C(NCc1cccc(O)c1)Nc1nc(-c2ccncc2)cs1 [RKI-1447] | 1.04 | 0.962
17 | O=C(CBr)N1CC([N+](=O)[O-])([N+](=O)[O-])C1 [RRx-001] | 0.915 | 0.843
18 | COC(=O)c1ccc([C@H]2c3[nH]c4ccccc4c3C[C@H](C(=O)OC)N2C(=O)CCl)cc1 [RSL3] | 0.465 | 0.175
19 | CNC(=O)c1cc(Oc2ccc(NC(=O)Nc3cc(C(C)(C)C)nn3-c3ccc4ncccc4c3)c(F)c2)ccn1 [Rebastinib (DCC-2036)] | 0.853 | 0.885
20 | CNC(=O)c1cc(Oc2ccc(NC(=O)Nc3ccc(Cl)c(C(F)(F)F)c3)c(F)c2)ccn1 [Regorafenib (BAY 73-4506)] | 0.775 | 0.936
21 | N#Cc1ccc(-c2csc(NN=C3CCCC3)n2)cc1 [Remodelin] | 0.941 | 0.854
22 | CN(C)C(=O)c1cc2cnc(Nc3ccc(N4CCNCC4)cn3)nc2n1C1CCCC1 [Ribociclib (LEE011)] | 0.961 | 0.812
23 | C/C=C1\NC(=O)[C@H]2CSSCC/C=C/[C@H](CC(=O)N[C@H](C(C)C)C(=O)N2)OC(=O)[C@H](C(C)C)NC1=O [Romidepsin] | 0.138 | 0.171
24 | Cc1nc(C(=O)NCC(=O)O)c(O)c2ccc(Oc3ccccc3)cc12 [Roxadustat (FG-4592)] | 0.951 | 0.842
25 | O=C(NNc1nc2cc(F)ccc2n2cccc12)c1cnccn1 [SC144] | 0.795 | 0.631
26 | CC(C)(C)C(=O)Nc1ccc2c(c1)C(=O)C(=O)c1ccccc1-2 [SF1670] | 0.966 | 0.809

Row | Structure (SMILES) | normalised area under dose-response curve [1] | normalised area under dose-response curve [2]
27 | O=c1cc(N2CCOCC2)oc2c(-c3ccc4c(c3)OCCO4)csc12 [SF2523] | 0.968 | 0.768
28 | O=C(NCC(=O)N1CCCC1)Nc1ccc2cnccc2c1 [SGC707] | 0.955 | 0.863
29 | CC(C)N(CCCNC(=O)Nc1ccc(C(C)(C)C)cc1)C[C@H]1O[C@@H](n2cc(Br)c3c(N)ncnc32)[C@H](O)[C@@H]1O [SGC 0946] | 0.94 | 0.809
30 | COc1ccc(CCc2nc3cc(-c4c(C)noc4C)ccc3n2C[C@H](C)N2CCOCC2)cc1Cl [SGC-CBP30] | 0.984 | 0.951
31 | Cc1cc(Nc2ccc(NC(=O)c3ccc(Nc4ccnc5ccccc45)cc3)cc2)nc(N)n1 [SGI-1027] | 0.662 | 0.569
32 | CN1CCC(CNc2ccc3ncc(-c4cccc(OC(F)(F)F)c4)n3n2)CC1 [SGI-1776 free base] | 0.949 | 0.788
33 | Cc1c[nH]c2nc(Nc3ccc(N4CCN(C)CC4)c(F)c3)nc(-c3cccc(CC#N)c3)c12 [SGI-7079] | 0.803 | 0.638
34 | Cn1cc(-c2ccc3nnc(Sc4ccc5ncccc5c4)n3n2)cn1 [SGX-523] | 0.983 | 0.941
35 | CC1(N)CCN(c2cnc(-c3cccc(Cl)c3Cl)c(N)n2)CC1 [SHP099 dihydrochloride] | 0.963 | 0.91
36 | C=CCNc1ncnc2ccc(Br)cc12 [SMER28] | 0.997 | 0.825
37 | C/C(=N\NC(=O)c1cccc(S(=O)(=O)N2CCOCC2)c1)c1cc(Cl)ccc1O [SP2509] | 0.86 | 0.824
38 | O=C(Nc1cc(C(F)(F)F)ccc1N1CCCCC1)c1ccncc1 [SRPIN340] | 0.964 | 0.905
39 | O=C(Nc1ccccc1-c1cn2c(CN3CCNCC3)csc2n1)c1cnc2ccccc2n1 [SRT1720 HCl] | 0.865 | 0.812
40 | CC(C)(C)c1ccc(S(=O)(=O)NCc2ccc(C(=O)Nc3cccnc3)cc2)cc1 [STF-31] | 0.864 | 0.865
41 | Cc1cc2c(C(=O)NC[C@H](C)c3ccccc3)c(O)c(O)cc2c(O)c1-c1c(C)cc2c(C(=O)NC[C@H](C)c3ccccc3)c(O)c(O)cc2c1O [Sabutoclax] | 0.822 | 0.909
42 | CC(C(=O)Nc1cccc(/N=C/c2c(O)ccc3ccccc23)c1)c1ccccc1 (centres undefined) [Salermide] | 0.876 | 0.858
43 | CC(C)=CCC/C(C)=C/CC/C(C)=C/CSc1ccccc1C(=O)O [Salirasib] | 0.949 | 0.881
44 | CC(C)n1nc(-c2ccc3oc(N)nc3c2)c2c(N)ncnc21 [Sapanisertib (INK 128, MLN0128)] | 0.541 | 0.389
45 | CN1CCN(CCOc2cc(OC3CCOCC3)c3c(Nc4c(Cl)ccc5c4OCO5)ncnc3c2)CC1 [Saracatinib (AZD0530)] | 0.858 | 0.609
46 | NC(=O)C1CCCc2c1[nH]c1ccc(Cl)cc21 (centres undefined) [Selisistat (EX 527)] | 0.971 | 0.997
47 | Cc1cc(F)c(C(=O)Nc2cccc(-c3nncn3C(C)C)n2)cc1-n1cnc(C2CC2)c1 [Selonsertib (GS-4997)] | 0.951 | 0.911
48 | Cn1cnc2c(F)c(Nc3ccc(Br)cc3Cl)c(C(=O)NOCCO)cc21 [Selumetinib (AZD6244)] | 0.676 | 0.492
49 | O=C(O)c1ccc2c(c1)nc(Nc1cccc(Cl)c1)c1ccncc12 [Silmitasertib (CX-4945)] | 0.924 | 0.88
50 | O=C([O-])C(Cl)Cl.[Na+] [Sodium dichloroacetate (DCA)] | 0.996 | 0.951
51 | CNC(=O)c1cc(Oc2ccc(NC(=O)Nc3ccc(Cl)c(C(F)(F)F)c3)cc2)ccn1 [Sorafenib Tosylate] | 0.947 | 0.953
52 | CN1CCN(c2nc(C3=C(c4c[nH]c5ccccc45)C(=O)NC3=O)c3ccccc3n2)CC1 [Sotrastaurin] | 0.978 | 0.941
